PubChem BioAssay (NCI)
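Five compound concentrations were applied to cells in 96-well plates for 48 hours; endpoints were derived by simple linear interpolation of the resulting dose-response curve. Abbreviation: GI50, concentration required for 50% inhibition of growth. TGI marks complete inhibition of growth.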

How the values were obtained:
Experiment in all cases: growth of human tumour cells (NCI), 48 h
[1] = system: HOP-92 NSCLC
[2] = system: LOX IMVI melanoma
[3] = system: NCI-H23 lung
[4] = system: 786-0 renal
[5] = system: ACHN renal
[6] = system: SR leukemia
[7] = system: NCI-H460 lung
[8] = system: HL-60(TB) leukemia
[9] = system: HT29 colon
[10] = system: RPMI-8226 leukemia

Row | Compound | GI50 [1] [µM] | TGI [1] [µM] | GI50 [2] [µM] | TGI [2] [µM] | GI50 [3] [µM] | TGI [3] [µM] | GI50 [4] [µM] | TGI [4] [µM] | GI50 [5] [µM] | TGI [5] [µM] | GI50 [6] [µM] | TGI [6] [µM] | GI50 [7] [µM] | TGI [7] [µM] | GI50 [8] [µM] | TGI [8] [µM] | GI50 [9] [µM] | TGI [9] [µM] | GI50 [10] [µM] | TGI [10] [µM]
1 | Cc1cc(C)c(NC(=O)c2sc3nc4c(cc3c2N)C(=O)CCC4)c(C)c1 | 0.114 | 32.1 | 5.39 | > 100 | 3.9 | > 100 | 6.85 | > 100 | 6.11 | > 100 | 3 | > 55.3 | 1.56 | 21.2 | 3.64 | > 100 | 3.09 | 11.1 | 4.74 | > 100
2 | COc1ccc(C[N+](C)(C)N)cc1OC | > 100 | > 100 | > 100 | > 100 | > 100 | > 100 | > 100 | > 100 | > 100 | > 100 | > 100 | > 100 | – | > 100 | > 100 | > 100 | > 100 | > 100 | > 100 | > 100
3 | CC/C=C\C[C@H](O)C/C=C1/C(=O)C=C[C@@H]1C/C=C\CCCC(=O)OC | 3.22 | 8.67 | 0.237 | 0.609 | 1.75 | 4.25 | 1.86 | 3.62 | 2 | 4.27 | 0.403 | 6.18 | 3.26 | 11.2 | 1.74 | 7.07 | 1.61 | 3.8 | 1 | 9.21
4 | CCCN(CCC)C(=O)c1c([N+](=O)[O-])cc(C(F)(F)F)cc1[N+](=O)[O-] | – | 93.3 | – | > 100 | – | 73.3 | – | > 100 | – | > 100 | – | > 100 | – | > 100 | – | 56.3 | – | > 100 | – | > 100
5 | CCCC(CCC)NCC(O)c1cc(-c2ccc(C(F)(F)F)cc2)nc(C(F)(F)F)c1 (configuration not stated) | 1.43 | 2.87 | 1.53 | 2.97 | 1.58 | 3.15 | 1.37 | 2.9 | 1.63 | 3.16 | 1.4 | 3.27 | 1.77 | 3.4 | 2.11 | 3.97 | 1.83 | 3.32 | 2.15 | 4.87
6 | S=c1ssc(N2CCOCC2)c1Cl | 78.3 | > 100 | 17.7 | 37.8 | 29.1 | > 100 | > 100 | > 100 | 78.5 | > 100 | 13.3 | 65.9 | 21.5 | 67 | 24.4 | 63.3 | 47.4 | > 100 | 23.3 | 69.2
7 | COCC[C@H]1CCC/C=C/[C@@H]2C[C@H](O)C[C@H]2[C@H](O)/C=C/C(=O)O1 | 0.214 | 0.888 | 0.0434 | 0.179 | 0.0858 | 0.858 | 0.0234 | 0.054 | 0.319 | > 100 | 0.141 | – | 0.39 | > 100 | 0.273 | 0.87 | 0.0351 | 0.227 | 0.284 | –
8 | O=C(Nc1n[nH]c2cc(-c3ccccc3)ccc12)C1CC1 | > 25 | > 25 | 16 | > 25 | 16.8 | > 25 | > 25 | > 25 | > 25 | > 25 | 3.31 | > 25 | 7.15 | > 25 | 6.34 | > 20.7 | 2.31 | > 25 | 9.58 | > 25
9 | CN(C)CCC1(C2=CCCC2)CC/C(=C\c2ccc(Cl)cc2)C1=O (configuration not stated) | – | 15.4 | – | 23.1 | – | 29.3 | – | 15.2 | – | 23.8 | – | 7.42 | – | 26.9 | – | 3.91 | – | 8.35 | – | 22.4
10 | CCCCCCCCCCCCCCCC(=O)OCC(C[As](=O)(O)O)OC(=O)CCCCCCCCCCCCCCC (configuration not stated) | – | > 100 | – | > 100 | – | > 100 | – | > 100 | – | > 100 | – | > 100 | – | > 100 | – | > 100 | – | > 100 | – | > 100
11 | O=c1cc(NCC(O)CN2CCCC2)n(Cc2ccccc2)c(=O)n1Cc1ccccc1 (configuration not stated) | 14.9 | > 100 | 18.5 | 38.7 | 92 | > 100 | 32.3 | > 100 | > 100 | > 100 | 0.847 | 31 | 39.7 | > 100 | 7.81 | 30.3 | 20 | 49 | 22.6 | 46.5
12 | Cc1cc2nc(C=C(C(F)(F)F)C(F)(F)F)oc2cc1C | – | > 10 | – | 3.96 | – | 4.97 | – | 3.38 | – | > 10 | – | > 10 | – | > 10 | – | 5.03 | – | 7.76 | – | 5.62
13 | O=C(c1cccc2ccccc12)N1CCC(C2CCN(C(=O)c3cccc4ccccc34)CC2)CC1 | – | > 100 | – | > 100 | – | > 100 | – | > 100 | – | > 100 | – | > 100 | – | > 100 | – | > 100 | – | > 100 | – | > 100
14 | CCOC(=O)C1SC(=Nc2ccc(C)c(C)c2)N=C1C (configuration not stated) | – | > 100 | – | > 100 | – | > 100 | – | > 100 | – | > 100 | – | > 100 | – | > 100 | – | > 100 | – | > 100 | – | > 100
15 | O=S(=O)(c1ccc(NC(=S)NC23CC4CC(CC(C4)C2)C3)cc1)N1CCCCC1 | 1.63 | 5 | 3.71 | > 100 | 3.5 | > 100 | 4.14 | > 100 | 3.12 | > 100 | 2.69 | > 100 | 3.35 | > 100 | 2.65 | 6.24 | 2.49 | 5.84 | 2.15 | 5.86
16 | CNC(=S)/N=C(\N)N(C)C | – | > 100 | – | > 100 | – | > 10 | – | > 100 | – | > 100 | – | > 100 | – | > 100 | – | > 100 | – | > 100 | – | > 100
17 | c1ccc(Sc2ccc(Cc3nc4cc5ccccc5cc4[nH]3)cc2)cc1 | 6.33 | 66.3 | 1.42 | 29.1 | 7.46 | 36.1 | 4.77 | > 63.8 | 13.2 | > 75.1 | 26 | > 100 | 0.21 | > 100 | 76.4 | > 100 | 8.54 | > 100 | 3.77 | 49.7
18 | COc1cc2[nH]c3c(c2cc1OC)CCN[C@]31CC[C@]2(CC3c4c(cc(OC)c(O)c42)CCN3C)C[C@H]1OC (some centres not stated) | – | 75.7 | – | 56 | – | > 100 | – | 32.6 | – | 62.4 | – | 40 | – | 63.5 | – | 24.6 | – | 63.3 | – | 41.9
19 | CCCCNC1CCCCC[C@H]1O (some centres not stated) | – | > 100 | – | > 100 | – | > 100 | – | > 100 | – | > 100 | – | > 100 | – | > 100 | – | > 100 | – | > 100 | – | > 100
20 | Cc1[nH]c(=O)nc2[nH][nH]c(=O)c12 | – | > 100 | – | > 100 | – | > 100 | – | > 100 | – | > 100 | – | > 100 | – | > 100 | – | > 100 | – | > 100 | – | > 100
21 | CCOC(=O)CCC(=O)C1c2cccc(O)c2C(=O)c2c(O)cc(C)cc21 (configuration not stated) | – | 3.04 | – | 1.97 | – | 2.34 | – | 2.63 | – | 2.41 | – | 4.25 | – | 1.27 | – | 1.8 | – | 7.17 | – | 5.77
22 | OCC1OC(n2cnc3c2NC=NC[C@H]3O)C(Cl)C1O (some centres not stated) | – | > 100 | – | > 100 | – | > 100 | – | > 100 | – | > 100 | – | > 100 | – | > 100 | – | > 100 | – | > 100 | – | > 100
23 | COc1ccc(C(=O)c2cc(C)c(OC)c(C)c2)cc1OC(=O)CCl | 12.4 | > 96.1 | < 0.01 | > 100 | < 0.0293 | > 100 | 0.0763 | > 100 | < 0.01 | 77.5 | < 0.01 | > 100 | < 0.01 | 18.5 | < 0.01 | < 0.01 | 1.06 | 14.8 | < 0.01 | 25.3
24 | COc1ccc(C2=C(Cl)c3cc(OC)c(OC)cc3C2Cl)cc1 (configuration not stated) | – | 30.3 | – | 27.5 | – | > 54.5 | – | 28.6 | – | 30.6 | – | > 100 | – | 27.4 | – | 18.1 | – | 28.8 | – | > 66.3
25 | CC(C)c1c(O)c(O)c2c(c1O)C(=O)C(O)=C1C(C)(C)CCC[C@@]12C | – | 5.63 | – | 13.8 | – | 13.8 | – | 13.8 | – | 11.3 | – | 6.59 | – | 10.1 | – | 4.78 | – | 10.2 | – | 3.99
26 | Cc1cc(C(=O)Nc2ccc3cc(CN4CCOCC4)ccc3n2)c(C)n1-c1ccccc1 | 2.15 | 40.3 | 1.99 | 15.2 | 0.974 | 6.77 | 4.75 | 17.9 | 2.6 | 42.3 | 2.6 | > 74.8 | 2.51 | > 52.1 | 1.71 | 5.06 | 2.71 | > 100 | 0.822 | 3.73
27 | CCNCCNc1cc(-c2ccc(C(F)(F)F)cc2)c(C#N)c2nc3ccccc3n12 | 1.55 | 2.98 | 0.185 | 0.382 | 1.62 | 3.25 | 1.57 | 3.06 | 1.24 | 2.64 | 0.343 | 1.19 | 1.22 | 2.73 | 0.203 | 0.468 | 0.365 | 1.29 | 1.36 | 3.61
28 | C=C(C)[C@@H]1CC[C@]2(CO)CC[C@]3(C)[C@H](CC[C@@H]4[C@@]5(C)C=C(C#N)C(=O)C(C)(C)[C@@H]5CC[C@]43C)[C@@H]12 | 2.22 | 5.15 | 1.18 | 2.68 | 2 | 6.05 | 1.92 | 3.98 | 1.72 | 4.77 | 1.53 | 6.01 | 1.37 | 5.17 | 0.471 | 5.5 | 1.16 | 4.76 | 0.809 | 3.86
29 | COc1cc2ncnc(-n3ncc4cc(NC(=O)Nc5ccccc5)ccc43)c2cc1OC | 0.707 | 4.15 | 0.722 | 2.75 | 1.3 | 4.4 | 1.3 | 4.34 | 1.63 | 11.1 | 2.03 | 15.3 | 0.706 | 16.4 | 1.57 | 4.52 | 0.615 | 10.9 | 0.934 | 12
30 | NS(=O)(=O)c1ccc(-c2ccc3c(NC(=O)C4CC4)n[nH]c3c2)cc1 | 16.6 | > 25 | > 25 | > 25 | > 25 | > 25 | > 25 | > 25 | > 25 | > 25 | > 25 | > 25 | > 25 | > 25 | > 25 | > 25 | > 25 | > 25 | > 25 | > 25
